From PubChem BioAssay (NCI)
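48-hour exposure; five concentrations; linearly interpolated endpoints. TGI marks complete inhibition of growth.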

Tests used:
Assay in all cases: NCI anticancer screen, dose series, 48 h
SK-OV-3 ovarian = tested on: SK-OV-3 ovarian
U251 CNS = tested on: U251 CNS
MOLT-4 leukemia = tested on: MOLT-4 leukemia
SF-268 CNS = tested on: SF-268 CNS
SK-MEL-28 melanoma = tested on: SK-MEL-28 melanoma
MALME-3M melanoma = tested on: MALME-3M melanoma
HCT-116 colon = tested on: HCT-116 colon
IGROV1 ovarian = tested on: IGROV1 ovarian
786-0 renal = tested on: 786-0 renal
MDA-MB-231 breast = tested on: MDA-MB-231 breast
SN12C renal = tested on: SN12C renal
SK-MEL-5 melanoma = tested on: SK-MEL-5 melanoma
HOP-92 NSCLC = tested on: HOP-92 NSCLC

Row | Compound | TGI (SK-OV-3 ovarian) [µM] | TGI (U251 CNS) [µM] | TGI (MOLT-4 leukemia) [µM] | TGI (SF-268 CNS) [µM] | TGI (SK-MEL-28 melanoma) [µM] | TGI (MALME-3M melanoma) [µM] | TGI (HCT-116 colon) [µM] | TGI (IGROV1 ovarian) [µM] | TGI (786-0 renal) [µM] | TGI (MDA-MB-231 breast) [µM] | TGI (SN12C renal) [µM] | TGI (SK-MEL-5 melanoma) [µM] | TGI (HOP-92 NSCLC) [µM]
1 | CCOC(=O)CC(c1ccccc1)C(C)(C(=O)OCC)C(=O)OCC (stereo unspecified) | > 100 | > 100 | > 100 | > 100 | > 100 | > 100 | > 100 | > 100 | > 100 | > 100 | > 100 | > 100 | 
2 | CCOC(=O)Cn1c2ccccc2c(=O)c2cc(C)c(C)c(C#N)c21 | > 100 | > 100 | > 100 | > 100 | > 100 | > 100 | > 100 | > 100 | > 100 |  | > 100 |  | > 100
3 | CC(CCC[C@H](C)CO)[C@H]1[C@@H](O)C(O)C2[C@@H]3C[C@@H](O)C4(O)C[C@@H](O)CC[C@]4(C)C3CC[C@@]21C (stereo partly specified) | > 100 | > 100 | > 100 | > 100 | > 100 | > 100 | > 100 | > 100 | > 100 |  | > 100 | > 100 | > 100
4 | O=c1c2ccccc2[nH]n1Cc1ccccc1 | > 100 | > 100 | > 100 | > 100 | > 100 |  | > 100 | > 100 | > 100 | > 100 | > 100 | > 100 | > 100
5 | CC(=O)Oc1cc(S(=O)(=O)Nc2n[nH]c(Nc3ccc(C)cc3)n2)c(S)cc1Cl |  | > 100 | > 100 |  | > 100 | > 100 | > 100 | > 100 | > 100 | > 100 | > 100 | > 100 | > 100
6 | CC(=O)OCC1OC(n2ccc(=O)[nH]c2=O)C(OC(C)=O)C(OC(C)=O)C1OC(C)=O (stereo unspecified) | > 100 | > 100 |  | > 100 | > 100 | > 100 | > 100 | > 100 | > 100 |  | > 100 | > 100 | > 100
7 | COc1cc(C2C3=C(COC3=O)Oc3cc4c(cc32)OCO4)ccc1O (stereo unspecified) | 0.932 | > 100 | > 100 | > 66.4 | > 100 |  | > 48.3 | > 100 | > 100 |  | > 100 | 0.736 | > 78.1
8 | COC(=O)N1CC(=O)C(C(=O)NC23CC4CC(CC(C4)C2)C3)C1 (stereo unspecified) |  | > 100 | > 100 | > 100 | > 100 | > 100 | > 100 | > 100 | > 100 | > 100 |  | > 100 | > 100
9 | COc1ccc(C2=NN(c3ccccc3)C[N+](c3ccc(C)cc3)=N2)cc1 |  | 45.3 | 88.5 | > 100 | > 100 | > 100 | > 100 | > 100 | > 100 |  | > 100 | > 10 | 
10 | COC(=O)c1cc(C(=O)OC)c(CC(=O)C(=O)NC2C3CC4CC(C3)CC2C4)nc1CC(=O)C(=O)NC1C2CC3CC(C2)CC1C3 (stereo unspecified) | > 100 | > 100 | > 100 | > 100 | > 100 | > 100 | > 100 | > 100 | > 100 |  | > 100 | > 100 | > 100
11 | C=CC(O)(CBr)CCC(Br)C(=C)C (stereo unspecified) | > 10 | > 10 | > 10 | > 10 | > 10 | > 10 | > 10 | > 10 | > 10 | > 10 | > 10 | > 10 | 
12 | CC(=O)OC(CC1(C)C(C)CCC23COC(=O)C2=CCCC31)c1ccoc1 (stereo unspecified) | > 100 | 29.3 | 90.3 | 36.2 | 33 | 55.2 | 61.6 |  | 32.2 |  | 71.8 | 42.1 | 52.5
13 | COc1cc2c(c(OC)c1OC)-c1ccc(SC)c(=O)cc1C(CC(=O)Oc1cccc([N+](=O)[O-])c1)C2 (stereo unspecified) | > 100 |  | > 100 | > 27.2 | > 100 | > 100 | 3.72 | > 100 | > 100 |  | > 76.9 | > 100 | > 100
14 | COc1ccc(/C=C2/CSCC3=C2NC(=S)NC3c2ccc(OC)c(OC)c2OC)c(OC)c1OC (stereo unspecified) | > 100 | > 100 | > 100 | > 100 | 81.9 | 78.6 | 60 | 44.7 | 40.7 | 59.4 | 71.8 | 29.8 | 
15 | NCCSc1cc(O)c2c(c1N)C(=O)c1ccccc1C2=O | > 100 | > 100 | 63.8 | > 100 | > 100 | 75.5 | > 100 | 65.9 | > 100 |  | > 100 | 33.4 | > 100
16 | Cc1cc(S(=O)(=O)N2CCNNC2=O)c(S)cc1Cl |  | > 100 | > 100 | > 100 | 59.6 | 46.2 |  | > 100 | 43 | 61 | > 100 | > 100 | > 100
17 | CC1CN=C(NS(=O)(=O)c2cc(C(=O)Nc3ccc(Cl)cc3)c(Cl)cc2S)NN1 (stereo unspecified) | > 100 | > 100 | > 100 | 52.1 | 83.9 | 39.1 | > 100 | > 100 | > 100 | > 100 | > 100 | 28.8 | 
18 | CCOC(=O)C(=O)C=P(c1ccccc1)(c1ccccc1)c1ccccc1 | > 100 | > 100 | > 100 | > 100 | > 100 | > 100 | > 100 | > 100 | > 100 |  | > 100 | > 100 | > 100
